Assay results as given in PMC11738990, “A small-molecule TNIK inhibitor targets fibrosis in preclinical and clinical models” (Nature Biotechnology, 2024).
Several values for one entry are separate records, joined by “and”; a condition that tells them apart may be missing. Equal values may be shown once. Read-outs that look alike come from different tables or passages of the source.

How the values were obtained:
C57BL/6 mice = assay: Bleomycin-induced lung fibrosis model; assay type: in vivo, mouse; conditions: for HE staining (inflammation area) / IL-1beta in BALF / IL-6 in BALF / monocytes, cell count in BALF / neutrophils, cell count in BALF / Lung function (Penh) / Masson Trichrome's staining / Modified Ashcroft Score / collagen I / α-SMA: individual animals; for Lung function (Penh) / Masson Trichrome's staining / Modified Ashcroft Score / collagen I / α-SMA: Fig 3B-C
Description: Mice received bleomycin on day 1 at a dose of 0.66 mg per kg (equivalent to 1 U per kg), in a volume of 50 μl by intratracheal administration, or received saline (sham group). On day 7, dosing with the corresponding compounds was started. The vehicle group (group 1) was treated with 0.5% methylcellulose BID. […] On days 5 and 21, lung function measurement was performed. On day 28, all animals were killed, and blood and tissue samples were collected along with BALF.
Lung function was measured according to the HDB standard protocol. Expiratory time, relaxation time, peak expiratory flow and peak inspiratory flow were collected and used to calculate Penh data.
Mice were first anesthetized with Zoletil–xylazine (50 mpk and 10 mpk, i.p.). Next, a 1.5–2-cm longitudinal incision was made on the ventral side of the neck to expose the trachea by blunt dissection, and curved forceps were placed underneath the trachea. A 10–12-cm piece of suture was then threaded underneath the trachea using forceps. The ends of the suture were then pulled cranially to ‘stretch’ the trachea toward the surgeon. A 20-G needle was then used to poke a hole in the trachea as close to the larynx as possible. A 22-G blunt stainless steel needle connected to PE tubing was placed in the hole and inserted approximately 5–8 mm into the trachea. The cannula was secured in the trachea by tying the suture around it with an overhand knot. A 1-ml syringe containing 0.4 ml saline was gently pushed forward and backward three times to recover BALF fluid. BALF was transferred into empty tubes and stored on ice. This process was repeated twice with 0.3 ml saline for a total volume of 1 ml.
Total cell numbers were counted with a standard hemocytometer by mixing 20 μl BALF with 20 μl trypan blue. Cytospins were prepared by cytocentrifugation using Cytospins at 106g for 5 min, and then smears of BALF cells were stained with Diff-Quick stain. Cell differentiation was performed by counting at least 400 cells using standard hemocytologic criteria to classify them as alveolar macrophages or monocytes, neutrophils, eosinophils or lymphocytes. The rest of the BALF fluid was centrifuged, and supernatants were collected and stored at −80 °C for cytokine, chemokine and total protein analysis.
From the collected BALF, concentrations of cytokines were measured from mice in groups 2–7 killed on day 28. Mouse BALF cytokines and chemokines were measured using the ELISA Analysis Kit (Sinobest Bio). Mouse BALF soluble collagen was measured using the Soluble Collagen kit (Biocolor). Mouse lung hydroxyproline content was measured using the Hydroxyproline Assay Kit (Njjcbio).
Left lung lobes were removed from each mouse and fixed in 10% NBF solution, embedded in paraffin and processed to obtain 4-μm sections for staining with H&E. H&E-stained slides were scanned using an Aperio ScanScope Model CS2 (Leica) at ×200 magnification. Images were then opened in the HALO Plus 5 workstation (version 2.3, Indica Labs) program. Using the pen annotation tool, the whole-lung section was selected as an annotation layer. The area of vessels was defined as background using the exclusion drawing tool. The total inflammation area was quantified by selecting the dark blue inflammation cells using the pen annotation tool manually. The percentage of H&E staining (inflammation area/total area of the lung) in the selected annotation was then calculated using the program.
Masson’s trichrome staining was conducted using a ready-to-use kit (Trichrome Stain (Masson) Kit, HT15, Sigma-Aldrich) as described by the manufacturer.
Lung sections were cut at a thickness of 4 μm, dried in an oven for 1 h and stained with M&T using our standard protocol.

Sprague Dawley rats [1] = assay: Bleomycin-induced lung fibrosis model, inhalation administration; assay type: in vivo, rat; conditions: individual animals, Fig 4
Description: On day 1 of the study, bleomycin hydrochloride was administered to 8–9-week-old Sprague Dawley rats at a final concentration of 1.5 mg ml^−1 in sodium chloride solution (dosed volume at 1.0 ml per kg) by intratracheal atomization (once in the morning and once in the afternoon) to build the pulmonary fibrosis model.
A German PARI compression atomizer (PARI TurboBOY) was set at an aerosol flow rate of 9–10 l min^−1. […] The dilution flow of aerosol was set at 0 l min^−1, and the pumping-out flow from the chamber was set at 6 l min^−1. The fluid rate was set at 0.5 ml min^−1 for test article replenishment. Before nebulization, aerosol-generation conditions were validated three times.
And these parameters were recorded in real time during the experiment.
For concentration assessment, a glass fiber filter membrane (φ = 37 mm) was used to measure aerosol concentrations during drug administration from approximately day 8 to day 28. Sampling was taken at 5 min (±1 min) after drug administration from a random exposure port. […] Aerosol particle size parameters were calculated with the system software: median mass aerodynamic diameter (MMAD), geometric standard deviation, fine particle fraction (percentage of fine particles with MMAD < 5 μm), etc.
On day 29 and before euthanasia, animals were anesthetized with chloral hydrate (90 mg ml^−1, 5 ml per kg, i.p.). Necks were cut longitudinally at the middle to isolate trachea, and a catheter was intubated into the trachea toward the tail direction and fixed with a suture thread. The anesthetized animals were placed into the plethysmography chamber, to which the airway was connected. The AniRes2005 animal lung function-analysis system was used to assess parameters including FVC, airway resistance and pulmonary compliance. The ventilator respiration rate was set to 65 beats per minute; the respiration ratio was set to 20:10; the negative pressure controller was set to 30 cm H2O. FVC detection was set to pressure-control mode, while pressure was set to 30 cm H2O. The startup mode was selected to automatically detect at the end of breath, and the ‘Start’ button was clicked to passively inhale and then turned to exhale after reaching the set pressure value. Next, the ‘Stop’ button was clicked to complete an FVC detection. Each animal was evaluated for FVC at least five times. The final result was the mean value after the maximum and minimum data were excluded for analysis.

Sprague Dawley rats [2] = assay: Bleomycin-induced skin scarring model; assay type: in vivo, rat; conditions: 0.05% topical
Description: Animals were anesthetized using isoflurane. Using a 1-ml syringe containing a 27-gauge needle, 100 µl bleomycin (1 mg ml^−1 in PBS) solution was injected subcutaneously into two sites on the shaved dorsal regions, QD for 4 weeks. Rats in the naive control group were injected daily with an equivalent volume of sterile PBS. […] After 4 weeks of treatment, animals were killed with CO2, and skin was collected.
Hydroxyproline and collagen concentrations were normalized to total protein content using the Bradford method.

[3] = G2 INS018_055 3mpk BID, 3 mg/kg
[4] = G3 INS018_055 10mpk BID, 10 mg/kg
[5] = G4 INS018_055 30mpk BID, 30 mg/kg

SMILES: CC(C)n1cnc(-c2ccc(F)cc2)c1-c1nc(C(=O)Nc2ccc(N3CCN(C)CC3)cc2)c[nH]1 [INS018_055, 2-[4-(4-fluorophenyl)-1-(prop-2-yl)imidazol-5-yl]-N-[4-(4-methylhexahydropyrazin-1-yl)phenyl]-1H-imidazole-4-carboxamide]
- reduction in fibrotic area vs vehicle (C57BL/6 mice; 3 mg per kg BID): over 50%
- reduction in fibrotic area vs vehicle (C57BL/6 mice; 10 mg per kg BID): more than 75%
- reduction in fibrotic area vs vehicle (C57BL/6 mice; 30 mg per kg BID): more than 75%
- HE staining (inflammation area) (C57BL/6 mice; 3mpk BID): 16.35 and 17.87 and 12.71 and 1.09 and 10.2 and 19.47 and 0.4 and 43.83 and 48.17 and 4.33
- IL-1beta in BALF (C57BL/6 mice; 3mpk BID): 154.02 and 147.65 and 144.47 and 164.21 and 155.93 and 168.67 and 177.59
- IL-6 in BALF (C57BL/6 mice; 3mpk BID): 126.67 and 118.83 and 123.05 and 144.15 and 121.24 and 147.77 and 123.65 and 122.44 and 139.33
- monocytes, cell count in BALF (C57BL/6 mice; 3mpk BID): 48000 and 77000 and 128800 and 211900 and 99500 and 150400 and 143100 and 79600 and 62000
- neutrophils, cell count in BALF (C57BL/6 mice; 3mpk BID): 31200 and 500 and 700 and 0 and 1000
- HE staining (inflammation area) (C57BL/6 mice; 10mpk BID): 21.7 and 0.11 and 5.58 and 22.87 and 0.24 and 8.94 and 0.45 and 42.15 and 0.46 and 0.26
- IL-1beta in BALF (C57BL/6 mice; 10mpk BID): 241.92 and 204.98 and 199.25 and 226 and 212.62 and 229.18 and 207.53 and 202.43 and 189.69 and 227.91
- IL-6 in BALF (C57BL/6 mice; 10mpk BID): 201.44 and 191.8 and 156.22 and 187.57 and 178.53 and 200.84 and 157.42 and 203.86 and 172.5
- monocytes, cell count in BALF (C57BL/6 mice; 10mpk BID): 40000 and 80000 and 116200 and 4200 and 172000 and 84000 and 29600 and 114100 and 79200 and 38100
- neutrophils, cell count in BALF (C57BL/6 mice; 10mpk BID): 500 and 0 and 200 and 700
- HE staining (inflammation area) (C57BL/6 mice; 30mpk BID): 48.7 and 0.62 and 0.2 and 3.2 and 0.42 and 0.24 and 10.41 and 0.95 and 7.2 and 3.59
- IL-1beta in BALF (C57BL/6 mice; 30mpk BID): 205.62 and 188.42 and 203.7 and 211.35 and 200.52 and 228.54 and 189.06 and 180.78 and 190.33 and 224.09
- IL-6 in BALF (C57BL/6 mice; 30mpk BID): 147.17 and 151.39 and 139.93 and 159.83 and 139.33 and 174.91 and 170.69 and 171.9 and 168.28
- monocytes, cell count in BALF (C57BL/6 mice; 30mpk BID): 53400 and 20000 and 196300 and 26700 and 124800 and 27500 and 26500 and 61600 and 54600
- neutrophils, cell count in BALF (C57BL/6 mice; 30mpk BID): 0 and 400 and 1300 and 900
- Lung function (Penh) (C57BL/6 mice; [3]): 0.6758 and 0.6536 and 0.6784 and 0.8035 and 0.7941 and 0.8536 and 2.1862 and 0.7195 and 0.614 and 0.4863 and 3.086 and 0.8355 and 0.9151
- Masson Trichrome's staining (C57BL/6 mice; [3]): 13.42 and 12.85 and 13.06 and 0.67 and 7.67 and 20.55 and 0.21 and 52.81 and 60.17 and 6.1
- Modified Ashcroft Score (C57BL/6 mice; [3]): 4.5 and 1.5 and 6 and 3.25
- collagen I (C57BL/6 mice; [3]): 1.64 and 0.35 and 0.02 and 1.98 and 3.34 and 1.23 and 0.25 and 0.51 and 0.22 and 0.32
- α-SMA (C57BL/6 mice; [3]): 0.37 and 0.33 and 0.09 and 0.57 and 0.58 and 0.29
- Lung function (Penh) (C57BL/6 mice; [4]): 0.921 and 0.5921 and 0.7137 and 3.621 and 0.8031 and 0.5775 and 0.6428 and 0.5842 and 0.678 and 0.5758 and 0.618 and 0.6177 and 0.711
- Masson Trichrome's staining (C57BL/6 mice; [4]): 19.44 and 0.05 and 6.38 and 17.98 and 0.22 and 11.46 and 0.26 and 36.84 and 1 and 0.45
- Modified Ashcroft Score (C57BL/6 mice; [4]): 1.25 and 2.5 and 0.75 and 3 and 4.5 and 0.25
- collagen I (C57BL/6 mice; [4]): 0.04 and 2.29 and 0.08 and 0.17 and 0.07 and 0.11 and 0.36 and 0.22 and 2.99 and 3.49
- α-SMA (C57BL/6 mice; [4]): 0.2 and 0.91 and 0.22 and 0.38 and 0.09 and 0.78 and 0.06 and 0.41 and 2.61
- Lung function (Penh) (C57BL/6 mice; [5]): 0.81 and 0.4773 and 0.7792 and 0.5085 and 0.4976 and 0.9972 and 0.6276 and 0.4738 and 0.7711 and 0.8367 and 0.5642 and 0.8492 and 0.6495
- Masson Trichrome's staining (C57BL/6 mice; [5]): 54.82 and 0.37 and 1.9 and 3.57 and 0.51 and 0.16 and 12.49 and 1.77 and 9.46 and 7.1
- Modified Ashcroft Score (C57BL/6 mice; [5]): 1.5 and 3 and 6
- collagen I (C57BL/6 mice; [5]): 0.43 and 0.13 and 2.32 and 1.69 and 1.28 and 0.07 and 1.12 and 0.03 and 0.15 and 0.02
- α-SMA (C57BL/6 mice; [5]): 0.1 and 0.05 and 0.38 and 0.09 and 0.73 and 0.22 and 0.72 and 0.11 and 0.15 and 0.18
- Cdyn (Sprague Dawley rats [1]; INS018_055 0.1 mg/mL): 0.2868 mL/cmH2O and 0.282 mL/cmH2O and 0.2528 mL/cmH2O and 0.2276 mL/cmH2O and 0.2464 mL/cmH2O and 0.2949 mL/cmH2O and 0.266 mL/cmH2O and 0.2918 mL/cmH2O and 0.3725 mL/cmH2O
- FVC (Sprague Dawley rats [1]; INS018_055 0.1 mg/mL): 11.667 and 10.372 and 9.331 and 9.408 and 9.013 and 11.225 and 10.246 and 9.406 and 11.458
- MT staining for fibrosis (Sprague Dawley rats [1]; INS018_055 0.1 mg/mL): 39.4049 and 24.0295 and 21.4518 and 29.9242 and 25.5526 and 41.2629 and 23.5476 and 24.3272 and 18.8851
- Modified Ashcroft Score (Sprague Dawley rats [1]; INS018_055 0.1 mg/mL): 3.58 and 3.5 and 3.67 and 4.67
- RL (Sprague Dawley rats [1]; INS018_055 0.1 mg/mL): 0.2183 cmH2O and 0.2228 cmH2O and 0.249 cmH2O and 0.2763 cmH2O and 0.2553 cmH2O and 0.2139 cmH2O and 0.2369 cmH2O and 0.215 cmH2O and 0.1673 cmH2O
- Cdyn (Sprague Dawley rats [1]; INS018_055 0.3 mg/mL): 0.1877 mL/cmH2O and 0.26 mL/cmH2O and 0.28 mL/cmH2O and 0.2261 mL/cmH2O and 0.2364 mL/cmH2O and 0.2626 mL/cmH2O and 0.2848 mL/cmH2O and 0.214 mL/cmH2O and 0.2795 mL/cmH2O
- FVC (Sprague Dawley rats [1]; INS018_055 0.3 mg/mL): 8.356 and 10.531 and 9.955 and 8.979 and 9.285 and 9.684 and 11.437 and 8.52 and 10.758
- MT staining for fibrosis (Sprague Dawley rats [1]; INS018_055 0.3 mg/mL): 37.0531 and 32.9417 and 33.2766 and 28.9122 and 24.8997 and 24.7844 and 23.0018 and 21.403 and 19.6831
- Modified Ashcroft Score (Sprague Dawley rats [1]; INS018_055 0.3 mg/mL): 3.33 and 3.5 and 3.42 and 3.17 and 3.25
- RL (Sprague Dawley rats [1]; INS018_055 0.3 mg/mL): 0.334 cmH2O and 0.2417 cmH2O and 0.2246 cmH2O and 0.2783 cmH2O and 0.266 cmH2O and 0.2397 cmH2O and 0.2213 cmH2O and 0.2931 cmH2O and 0.2253 cmH2O
- Cdyn (Sprague Dawley rats [1]; INS018_055 1 mg/mL): 0.2887 mL/cmH2O and 0.2534 mL/cmH2O and 0.2831 mL/cmH2O and 0.2977 mL/cmH2O and 0.3373 mL/cmH2O and 0.3256 mL/cmH2O and 0.3052 mL/cmH2O and 0.2663 mL/cmH2O and 0.1759 mL/cmH2O
- FVC (Sprague Dawley rats [1]; INS018_055 1 mg/mL): 11.605 and 10.16 and 11.107 and 11.731 and 11.449 and 11.248 and 11.212 and 9.823 and 10.688
- MT staining for fibrosis (Sprague Dawley rats [1]; INS018_055 1 mg/mL): 13.0601 and 19.1932 and 11.5913 and 20.3302 and 12.2482 and 5.166 and 2.8883 and 26.6827 and 9.6738
- Modified Ashcroft Score (Sprague Dawley rats [1]; INS018_055 1 mg/mL): 3.08 and 2.5 and 1.92 and 1.58
- RL (Sprague Dawley rats [1]; INS018_055 1 mg/mL): 0.2246 cmH2O and 0.2544 cmH2O and 0.2308 cmH2O and 0.2117 cmH2O and 0.1856 cmH2O and 0.1933 cmH2O and 0.2063 cmH2O and 0.2431 cmH2O and 0.3604 cmH2O
- Cdyn (Sprague Dawley rats [1]; INS018_055 6 mg/mL): 0.2872 mL/cmH2O and 0.2596 mL/cmH2O and 0.2974 mL/cmH2O and 0.09892 mL/cmH2O and 0.2655 mL/cmH2O and 0.2689 mL/cmH2O and 0.283 mL/cmH2O and 0.2425 mL/cmH2O and 0.303 mL/cmH2O
- FVC (Sprague Dawley rats [1]; INS018_055 6 mg/mL): 10.938 and 9.019 and 10.156 and 12.074 and 10.094 and 10.135 and 10.127 and 8.751 and 10.893
- MT staining for fibrosis (Sprague Dawley rats [1]; INS018_055 6 mg/mL): 11.7864 and 15.1925 and 36.9642 and 17.393 and 15.0833 and 12.2135 and 12.9504 and 11.5722 and 12.5986
- Modified Ashcroft Score (Sprague Dawley rats [1]; INS018_055 6 mg/mL): 2.25 and 3.08 and 3
- RL (Sprague Dawley rats [1]; INS018_055 6 mg/mL): 0.2197 cmH2O and 0.2419 cmH2O and 0.2117 cmH2O and 0.6313 cmH2O and 0.2427 cmH2O and 0.2338 cmH2O and 0.2227 cmH2O and 0.2591 cmH2O and 0.2072 cmH2O
- Hydroxyproline in skin (Sprague Dawley rats [2]): 1036.36 and 1122.01 and 1193.18 and 833.714 and 660.98
- Total collagen in skin (Sprague Dawley rats [2]): 114.74 and 120.73 and 157.27 and 80.17 and 90.17
- Any TEAE (healthy subjects; MAD BID 7 d 30 mg N=6): 66.7%
- Any TEAE (healthy subjects; MAD BID 7 d 60 mg N=6): 100.0%
- Any TEAE (healthy subjects; MAD BID 7 d 90 mg N=6): 100.0%
- Abdominal distension (healthy subjects; MAD any dose N=18): 5.6%
- Anaemia (healthy subjects; MAD any dose N=18): 11.1%
